# Measured values as given in patent US5773522A, “Polymer-bound camptothecin derivatives” (priority 1993, dated 1998).
# How the values were obtained:
# [1] = Stability of polymeric conjugates in murine or human plasma (camptothecin release); format: in vitro ADME
# Protocol: Each sample was extracted by adding 100 μl of 0.25M phosphoric acid, 500 μl CH3 CN and 700 μl ethyl acetate and vigorously shaking for 20 minutes at 4° C. After that time, the sample was spun at 15000×g for 10 minutes and the supernatant was separated. To the residue was added 300 μl of CH3 CN and 500 μl was spun at 15000×g for 10 minutes. The supernatant was separated. The organic phases were pooled and evaporated using a high vacuum centrifuge. The sample was recovered by adding 500 μl of MeOH/water pH2 (70/30 by volume) and injected into HPLC apparatus for determining the total drug percentage content.
# Water solubility = format: physicochemical; conditions: dissolved in saline
# [2] = system: advanced M5076 murine reticulosarcoma; test: Antitumor activity against advanced M5076 murine reticulosarcoma; format: in vivo, C57Bl/6 mice; conditions: iv on day 16,20,24,28,31,35; for % tumor inhibition: estimated at day 34
# Protocol: (§1) Camptothecin (CPT) was dissolved in sterile water with 10% tween.
# (§2) Treatment was administered i.v. in a volume of 10 ml/kg of body weight and control mice were treated with sterile water.
# (§3) M5076 muine reticulosarcoma was maintained by serial i.m. passages and transplanted s.c. (5×10^5 cells/mouse) in compatible C57Bl/6 mice.
# (§4) All animals were from Charles River Calco, Como, Italy.
# (§5) Ten mice/group for conventional and eight for athymic mice were used.
# (§6) The conventional mice weighed 20 to 22 g and were kept under standard laboratory conditions.
# (§7) The mouse colony was routinely tested for the absence of antibodies to a panel of pathogens including Mouse Hepatitis, Sendai Virus and Mycoplasma Pulmonis.
# (§8) Tumor growth was assesed by caliper measurement and the tumor weight estimated according to Geran et al. (see: Cancer Chem.Rep., Part 3, 3 (2) ed. 3, pp 1-103, 1972). The antitumor activity is expressed as percentage of inhibition of tumor growth (%T/I) using the following formula: [formula] The median increase in survival time (T/C%) was calculated using the following formula: [formula]
# (§9) Toxicity was evaluated on the basis of the body weight reduction and gross autopsy findings, mainly in terms of reduction of spleen and liver size.
# [3] = system: early M5076 murine reticulosarcoma; test: Antitumor activity against early M5076 murine reticulosarcoma; format: in vivo, C57Bl/6 mice; conditions: 7.5 mg/kg (CPT equivalent); for % tumor inhib.: estimated one week after the last treatment
# Protocol: Camptothecin (CPT) was dissolved in sterile water with 10% tween. […]
# as §3, §4, §5, §6, §7, §8, §9
# HT29/Colon Carcinoma = test: Antitumor activity in athymic mice transplanted s.c. with HT29 Colon Carcinoma; format: in vivo, athymic Swiss/nu/ mice; conditions: for % tumor inhib. / TOX (number of toxic deaths/total number of mice) / cured mice (tumor free mice 90 days after tumor implant): 7.5 mg/kg (CPT equivalent), iv q4dx6
# Protocol: as §1, §2
# HT29 Colon Carcinoma was transplanted s.c. in athymic Swiss/nu/ mice using 15-20 mg of tumor brei.
# as §4, §5, §7, §8
# Cured mice are mice without tumor at the end of the experiment.
# as §9
# healthy C57Bl/F mice = test: Toxicity (LD10, LD50) in healthy mice; format: in vivo; conditions: i.v., healthy C57B1/F mice
# [4] = Toxicity (LD10, LD50) in healthy mice; format: in vivo, C57Bl/F mice; conditions: mouse, in vivo, iv, healthy C57B1/F mice; read-out: LD50 (dose inducing 50% of death mice)
# [5] = background statement; cited from earlier work
molecule,measurement,setting,value
"Copolymer of N-(2-hydroxypropyl)methacrylamide, 20-O-[N-methacryloylglycyl-(6-aminohexanoylyl]camptothecin and N-(2-hydroxy -propyl)methacryloylglycinamide [Al]",camptothecin released after plasma incubation,[1]; after 120 hours,10%
"Copolymer of N-(2-hydroxypropyl)methacrylamide, 20-O-[N-methacryloylglycyl -L-phenylalanyl-L-leucylglycyl] camptothecin and N-(2-hydroxypropyl) methacryloylglycinamide [Compound A2]",water solubility (in words),Water solubility,highly water soluble
same,camptothecin released after plasma incubation,[1]; after 60 hours,100%
same,T/C % (median increase in survival time),[2]; 10.0 mg/kg (CPT equivalent),174%
same,TOX (number of toxic deaths/total number of mice),[2]; 10.0 mg/kg (CPT equivalent),0/10
same,% tumor inhibition,[2]; 10.0 mg/kg (CPT equivalent),80%
same,T/C % (median increase in survival time),[2]; 15.0 mg/kg (CPT equivalent),183%
same,TOX (number of toxic deaths/total number of mice),[2]; 15.0 mg/kg (CPT equivalent),0/10
same,% tumor inhibition,[2]; 15.0 mg/kg (CPT equivalent),95%
same,T/C % (median increase in survival time),"[3]; iv 1,6,9",171%
same,TOX (number of toxic deaths/total number of mice),"[3]; iv 1,6,9",0/10
same,% tumor inhib.,"[3]; iv 1,6,9",100%
same,% tumor inhib.,HT29/Colon Carcinoma,96%
same,TOX (number of toxic deaths/total number of mice),HT29/Colon Carcinoma,0/18
same,cured mice (tumor free mice 90 days after tumor implant),HT29/Colon Carcinoma,3/18
same,antitumor activity compared with camptothecin (in words),"HT29/Colon Carcinoma; all experiments (HT29, early and advanced M5076)",striking higher activity
Copolymer of N-(^2 -hydroxypropyl)methacrylamide) 9-amino-20-O-[N-methacryloylglycyl-L-phenylalanyl-L-leucylglycyl] campto-thecin and N-(2-hydroxypropyl)methacryloylalycinamide [Compound A3],camptothecin released after plasma incubation,[1]; after 50 hours,100%
"CC[C@@]1(O)C(=O)OCc2c1cc1n(c2=O)Cc2cc3ccccc3nc2-1 [CPT, camptothecin]",T/C % (median increase in survival time),[2]; 7.5 mg/kg (CPT equivalent),173%
same,TOX (number of toxic deaths/total number of mice),[2]; 7.5 mg/kg (CPT equivalent),0/10
same,% tumor inhibition,[2]; 7.5 mg/kg (CPT equivalent),72%
same,LD10 (dose inducing 10% of death mice),healthy C57Bl/F mice,16.9 mg/kg
same,LD50,[4],43.4 mg/kg
same,T/C % (median increase in survival time),"[3]; ip 1,6,9",165%
same,TOX (number of toxic deaths/total number of mice),"[3]; ip 1,6,9",0/10
same,% tumor inhib.,"[3]; ip 1,6,9",100%
same,% tumor inhib.,HT29/Colon Carcinoma,83%
same,TOX (number of toxic deaths/total number of mice),HT29/Colon Carcinoma,0/10
same,cured mice (tumor free mice 90 days after tumor implant),HT29/Colon Carcinoma,0/10
same,solubility in vehicles suitable for parenteral administration (in words),[5],practically insoluble
